Read-outs that look alike come from different tables or passages of the source.

A word on the Kd: it is the equilibrium constant for the complex coming apart.

The target of assay [1] is T1, IGFBP-5 (Homo sapiens, UniProt P24593).
T1 construct: His-tag (N); T7-tag (pET-28a construct only) (N); made in house; host or cells: E. coli BL21
Kind of assay: Detection of ligand binding by 15N-HSQC NMR titration. The method, then:
Ligand binding was detected by acquiring ^15N—HSQC spectra. All NMR spectra were acquired at 300 K on Bruker DRX600 spectrometer. The samples for NMR spectroscopy were concentrated and dialyzed against PBS buffer. Typically, the sample concentration was varied from 0.3 to 1.0 mM. Before measuring, the sample was centrifuged in order to sediment aggregates and other macroscopic particles. 450 μl of the protein solution were mixed with 50 μl of D2O (5-10%) and transferred to an NMR sample tube. The stock solutions of compounds were 100 mM either in water or in perdeuterated DMSO. pH was maintained constant during the whole titration. The binding was monitored by observation of the changes in the ^15N—HSQC spectrum. Dissociation constants were obtained by monitoring the chemical shift changes of the backbone amide of several amino acid residues (Table 9) as a function of ligand concentration. Data were fit using a single binding site model.

Assay [2] concerns the target T2, complex of IGFBP-5 and IGF-I (Homo sapiens, UniProt P24593). As to the kind of experiment: Release of IGF-I from the complex with IGFBP-5 measured by 125I-IGF-I binding to IGF-R expressing NIH 3T3 cells. Format: cell-based. As to conditions: 10 or 100 nM IGFBP-5, 5 pM 125I-IGF-I, FIG. 7. The method, then:
Kalus, W., et al., in EMBO J. 17 (1998) 6558-6572, describe the inhibition of the binding of IGF-I to IGF-R expressing NIH 3T3 cells by formation of an inhibitory complex. This assay was used to investigate the release of IGF-I from the inhibitory complex with IGFBP-5.
NIH 3T3 cells stably expressing human IGF-R were grown in culture dishes in Dulbecco's modified Eagle's medium (DMEM) containing 10% fetal calf serum. Cells were washed carefully with PBS and incubated with 5 ml of 50 mM EDTA in PBS for 45 min. Cells were removed from the plate, washed once with PBS and once with binding buffer (100 mM HEPES pH 7.6, 120 mM NaCl, 5 mM KCl, 1.2 mM MgSO 4, 1 mM EDTA, 10 mM glucose, 15 mM sodium acetate, 1% dialysed BSA), and resuspended in binding buffer to determine the cell number. 5 pM ^125 I-IGF-I (Amersham) was preincubated with either 10 or 100 nM IGFBP-5 alone or in combination with 33 μM of the different compounds 1,2,3,4B and 4C at 4° C. for 1 h. Then 400 μl of the cell suspension corresponding to 2×10^5 cells were added to give a total volume of 500 μl. After 12 h incubation at 4° C., cells were washed with binding buffer (at 4° C.). Free hormone was removed by repeated centrifugation and resuspension in the binding buffer. The 125 I radioactivity bound to the cells was determined in a gamma-counter.

Assay [3] addresses T2, complex of IGFBP-5 and IGF-I. Kind of assay: Release of IGF-I from the complex with IGFBP-5 measured by IGF-R activation (autophosphorylation) in NIH 3T3 cells. Format: cell-based. The settings on record: FIG. 8. The text has this: Kalus, W., et al., in EMBO J. 17 (1998) 6558-6572, describe the inhibition of the activation and autophosphorylation of the IGF-R by IGF-I in the presence of IGFBP-5. This assay was used to further investigate the release of IGF-I from the inhibitory complex with IGFBP-5 by compound 3. Binding of compound 3 to IGFBP-5 and dissociation of the complex of the binding protein with IGF-I should result in an activation and autophosphorylation of the IGF-R in the presence of IGFBP-5.
Confluent monolayers of the NIH 3T3 cells stably expressing human IGF-R in 3.5 cm dishes were starved in DMEM containing 0.5% dialysed fetal calf serum. After 48 h, cells were incubated without any hormone or with 10 nM IGF-I. Samples were preincubated with 100 nM IGFBP-5 and increasing concentrations of compound 3 from 0 to 50 μM at room temperature for 1 h. After a 10 min stimulation at 37° C., the medium was removed and cells were lysed with 250 μl of lysing buffer (20 mM HEPES pH 7.5, 150 mM NaCl, 10% glycerol, 1% NP-40, 1.5 mM MgCl 2, 1 mM EGTA), 10 mM sodium orthovanadate, and protease inhibitor cocktail Complete (Roche Molecular Biochemicals) for 10 min on ice. […] The protein concentration of the supernatant was determined using the BCA kit from Pierce according to the manufacturer's instructions. […]

Assay [4] concerns the target IGF-I (Homo sapiens, UniProt P05019). The settings on record: domain of IGFBP-5 residues 40-92; cited from earlier work.
Assay [5] addresses IGF-II (Homo sapiens, UniProt P01344). The settings on record: domain of IGFBP-5 residues 40-92; cited from earlier work.
Assay [6] deals with tumor growth. The settings on record: 1 mg/dose daily in mice; cited from earlier work.
Assay [7] deals with MDA-MB-231 cells. As to conditions: in vivo in mice; cited from earlier work.
The test system of assay [8] is MCF-7 cells. As to conditions: in vitro; cited from earlier work.
Assay [9] has as its system MDA-MB-435A cells. As to conditions: in vitro; cited from earlier work.
Setting [10] is: changes in chemical shift for the residue L81, read-out: KD.

T2 sequence (P24593 21-272, one chain of several): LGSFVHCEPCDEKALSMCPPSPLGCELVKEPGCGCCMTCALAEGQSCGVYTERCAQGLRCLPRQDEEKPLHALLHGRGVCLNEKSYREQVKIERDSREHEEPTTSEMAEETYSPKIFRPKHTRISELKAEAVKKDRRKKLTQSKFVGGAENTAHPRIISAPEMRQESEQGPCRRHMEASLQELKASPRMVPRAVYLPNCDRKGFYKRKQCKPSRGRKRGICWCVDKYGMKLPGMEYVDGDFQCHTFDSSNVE
Chain of IGF-II (P01344 25-91 limits assumed): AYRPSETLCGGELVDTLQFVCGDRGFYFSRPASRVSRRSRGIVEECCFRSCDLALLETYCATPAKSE
Chain of IGF-I (P05019 49-118 limits assumed): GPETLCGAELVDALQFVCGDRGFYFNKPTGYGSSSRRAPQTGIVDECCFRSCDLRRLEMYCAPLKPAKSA

As for `O=C(N[C@@H](Cc1ccccc1)C(=O)O)OCC1c2ccccc2-c2ccccc21` [Compound 2B, Nα-FMOC-L-phenylalanine], the dissociation constant Kd in [1] (setting [10]) was 1080 ± 507 µM.
For “IGFBP-5: human insulin-like growth factor binding protein 5, SwissProt P 24593”, the “binding of labeled IGF-I to NIH 3T3 cells” value in assay [2] is on record as “inhibited”. The “autophosphorylation of IGF-R by IGF-I” value in assay [3] (100 nM IGFBP-5, 10 nM IGF-I) was “inhibited”.
In the case of “mini-IGFBP-5: domain of IGFBP-5 between residues 40-92 (GSALAEGQSCGVYTERCAQGLRCLPRQDEEKPLHALLHGRGVCLNEKSYREQVKI)”, the Kd in assay [4] is 0.037 µM; in [5], 0.006 µM.
In the case of `O=C(Nc1ccc(S(=O)(=O)F)cc1)c1cc(N=Nc2cc(Cl)ccc2Cl)c2ccccc2c1O` [Compound 3, 4-(2,5-Dichlorophenylazo)-4′fluorosulfonyl-1-hydroxy-2-naphthanilide], in assay [2] (33 μM compound), the “release of IGF-I from the complex and binding of IGF-I to IGF-R expressing cells” value is “release of IGF-I from the complex”. In addition, in assay [3] (50 uM compound 3, 100 nM IGFBP-5, 10 nM IGF-I), the “autophosphorylation of IGF-R in presence of inactive complex of IGFBP-5 and IGF-I” value is given as “increased autophosphorylation of the receptor”.
For `CC(C)(C)Oc1ccc(C[C@H](NC(=O)OCC2c3ccccc3-c3ccccc32)C(=O)O)cc1` [Compound 2A, Nα-FMOC-O-tert-butyl-L-tyrosine], the dissociation constant (Kd) in [1] (setting [10]) turned out to be 718 ± 79 µM.
As to `O=C(N[C@@H](Cc1ccc(OP(=O)(O)O)cc1)C(=O)O)OCC1c2ccccc2-c2ccccc21` [Compound 2, Nα-FMOC-O-phospho-L-tyrosine], the dissociation constant (Kd) turned out to be 1710 ± 370 µM in assay [1] (average over residues, read-out: ligand in DMSO KD); 2210 ± 400 µM in assay [1] (average over residues, read-out: ligand in PBS KD); 2780 ± 300 µM in assay [1] (setting [10]); 2420 ± 180 µM in assay [1] (residue K91, read-out: ligand in DMSO KD); 2120 ± 1030 µM in [1] (residue K91, read-out: ligand in PBS KD); 1310 ± 170 µM in assay [1] (residue L73, read-out: ligand in DMSO KD). Also, the dissociation constant (Kd) in assay [1] (residue L73, read-out: ligand in PBS KD) was 2930 ± 1410 µM; in [1] (residue R87, read-out: ligand in DMSO KD), 1640 ± 120 µM; in assay [1] (residue R87, read-out: ligand in PBS KD), 2360 ± 1000 µM; in assay [1] (residue S85, read-out: ligand in DMSO KD), 1380 ± 100 µM; in assay [1] (residue S85, read-out: ligand in PBS KD) it was 2330 ± 940 µM; in [1] (residue Y50, read-out: ligand in DMSO KD), 1580 ± 90 µM. Further, the dissociation constant (Kd) was 1820 ± 950 µM in [1] (residue Y50, read-out: ligand in PBS KD); 1900 ± 170 µM in assay [1] (residue Y86, read-out: ligand in DMSO KD); 1720 ± 990 µM in [1] (residue Y86, read-out: ligand in PBS KD).

B1: pegylated IGFBP-1: IGFBP-1 covalently coupled to polyethylene glycol (van den Berg) (conjugate, UniProt P08833 26-259, looked up)
Insulin-like growth …: APWQCAPCSAEKLALCPPVSASCSEVTRSAGCGCCPMCALPLGAACGVATARCARGLSCRALPGEQQPLHALTRGQGACVQESDASAPHAAEAGSPESPESTEITEEELLDNFHLMAPSEEDHSILWDAISTYDGSKALHVTNIKKWKEPCRIELYRVVESLAKAQETSGEEISKFYLPNCNKNGFYHSRQCETSMDGEAGLCWCVYPWNGKRIPGSPEIRGDPNCQIYFNVQN
modifications: PEG
B1: the “inhibition of tumor growth (response)” value in assay [6] is given as “only partial response”.

B2: IGFBP-1: human insulin-like growth factor binding protein 1, SwissProt P 08833 (protein, UniProt P08833 26-259, looked up)
Insulin-like growth …: B1 Insulin-like growth …
On to B2, for which, in assay [7], the “growth of tumors formed MDA-MB-231 cells” value was “inhibits the growth”. Moreover, the “growth of MCF-7 cells” value in assay [8] was “inhibits the growth”. Also, the “growth of MDA-MB-435A cells” value in assay [9] is recorded as “inhibits the growth”.
